Test [1] deals with CD4+ T-cell subpopulation. As to the kind of experiment: Proliferation assay with CD4+-enriched T-cell subpopulation. The format is cell-based, human. How it is done:
PBL enriched for T-cell subpopulations were isolated by depleting a particular population by antibody/complement-mediated cytotoxicity. CD4^+ cells were prepared by lysing CD8^+ cells with anti-CD8 antibody and rabbit complement whereas the CD8^+ T cell subpopulation was enriched by lysing CD4^+ cells with an anti-CD4 antibody and rabbit complement.
PBL were resuspended in RPMI-1640 medium containing 2 mM L-glutamine, 25 mM HEPES, and 10 μg per ml gentamicin (HEPES media) at a concentration of 20×10^6 cells per ml. T cell specific MAb, OKT4 or OKT8 (Ortho Diagnostics Inc.), was added to the cells at the optimal concentration (previously determined by titration to give maximal lysis) and incubated on ice for 30 minutes. The cells were then washed with fresh HEPES media and resuspended at 10×10^6 cells per ml in baby rabbit complement (Pel-Freez Clinical Systems) diluted with the HEPES media to the appropriate concentration (previously assayed to give maximal antibody-specific cytotoxicity). The cells were incubated for 45 minutes in a 37° C. water bath with gentle mixing every 15 minutes. After incubation, the cells were washed thoroughly with the HEPES media and an aliquot (1-2×10^6) of cells was removed and stained for flow cytometric analysis which was performed as described below. […]

Test [2] concerns anti-EA antibodies in human sera. As to the kind of experiment: Serological reactivity of different sera (VCA-EA-, VCA+EA+, VCA+EA-) with p50.10. The test is classed as binding. The procedure: Serological reactivity of different sera (VCA−EA−, VCA+EA+, VCA+EA−) with the p50.10 synthetic peptide was performed as described in Example 1, according to Pothen, et al., supra.

For the sequence “ETFTETWNRFITHTE [p17.1, synthetic peptide from 17 Kd early antigen (EA-R) region of EBV]”, the S.I. in test [1] (CD4+ subpopulation from donor A, different concentrations) was ≤ 5.3. The proliferation response entry in test [1] (CD4+ subpopulation from donor B) is recorded as “responded”. Turning to “KQKHPKKVKQAFNPL [p50.10, synthetic peptide from 50 Kd early antigen (EA-D) region of EBV]”, the “reactivity with anti-EA antibody negative sera” value in test [2] is “lack of reactivity”.
